In general, EC50 refers to the concentration giving half of the maximal effect.

Data on 17 molecules can be found in patent US8906889B2, “C-3 cycloalkenyl triterpenoids with HIV maturation inhibitory activity” (priority 2012, dated 2014).

Counter-ions that a name gives are not always drawn.

The first experiment relates to recombinant NL4-3 virus (Renilla luciferase, Gag P373S). Description: HIV cell culture assay (luciferase reporter, MT-2 cells). The settings on record: MT-2 cells infected for 4-5 days with NLRluc recombinants; luciferase activity. In kind it is cell-based. The method, then: MT-2 cells and 293T cells were obtained from the NIH AIDS Research and Reference Reagent Program. MT-2 cells were propagated in RPMI 1640 media supplemented with 10% heat inactivated fetal bovine serum, […]. The 293T cells were propagated in DMEM media supplemented with 10% heat inactivated fetal bovine serum (FBS), 100 units/ml penicillin G and 100 μg/ml streptomycin. The proviral DNA clone of NL4-3 was obtained from the NIH AIDS Research and Reference Reagent Program. A recombinant NL4-3 virus, in which a section of the nef gene from NL4-3 was replaced with the Renilla luciferase gene, was used as a reference virus. In addition, residue Gag P373 was converted to P373S. Briefly, the recombinant virus was prepared by transfection of the altered proviral clone of NL4-3. Transfections were performed in 293T cells using LipofectAMINE PLUS from Invitrogen (Carlsbad, Calif.), according to manufacturer's instruction. The virus was titered in MT-2 cells using luciferase enzyme activity as a marker. Luciferase was quantitated using the Dual Luciferase kit from Promega (Madison, Wis.), with modifications to the manufacturer's protocol. The diluted Passive Lysis solution was pre-mixed with the re-suspended Luciferase Assay Reagent and the re-suspended Stop & Glo Substrate (2:1:1 ratio). Fifty (50) μL of the mixture was added to each aspirated well on assay plates and luciferase activity was measured immediately on a Wallac TriLux (Perkin-Elmer). Antiviral activities of inhibitors toward the recombinant virus were quantified by measuring luciferase activity in cells infected for 4-5 days with NLRluc recombinants in the presence serial dilutions of the inhibitor.
Background: In a reporter assay the amount or activity of a reporter protein is the signal.
As for `C=C(C)[C@@H]1CC[C@]2(NCCN3CCS(=O)(=O)CC3)CC[C@]3(C)[C@H](CC[C@@H]4[C@@]5(C)CC=C(C6=CC(C(=O)O)C(C(=O)O)C6)C(C)(C)[C@@H]5CC[C@]43C)[C@@H]12` (single isomer, unassigned) [Example A20], the EC50 stood at 60 nM.
The same measure, in the same setting: the same measure for `C=C(C)[C@@H]1CC[C@]2(NCCN3CCC(S(C)(=O)=O)CC3)CC[C@]3(C)[C@H](CC[C@@H]4[C@@]5(C)CC=C(C6=CC7C(C6)C7C(=O)O)C(C)(C)[C@@H]5CC[C@]43C)[C@@H]12` (single isomer, unassigned) [Example A28]: 0.658 nM.

Staying with this experiment, now noted: Renilla, NL43, MT-2 cells infected for 4-5 days with NLRluc recombinants; luciferase activity.
As for `C=C(C)[C@@H]1CC[C@]2(NCCN3CCC(S(C)(=O)=O)CC3)CC[C@]3(C)[C@H](CC[C@@H]4[C@@]5(C)CC=C(C6=CCC(C#N)(C(=O)O)CC6)C(C)(C)[C@@H]5CC[C@]43C)[C@@H]12` (mixture of isomers) [Example A6, 1-cyano-4-((1R,3aS,5aR,5bR,7aR,11aS,11bR,13aR,13bR)-5a,5b,8,8,11a-pentamethyl-3a-((2-(4-(methylsulfonyl)piperidin-1-yl)ethyl)amino)-1-(prop-1-en-2-yl)-2,3,3a,4,5,5a,5b,6,7,7a,8,11,11a,11b,12,13,13a,13b-octadecahydro-1H-cyclopenta[a]chrysen-9-yl)cyclohex-3-enecarboxylic acid], the concentration giving a half-maximal response (EC50) is 6.18 nM.
For `C=C(C)[C@@H]1CC[C@]2(NCCN3CCC(S(C)(=O)=O)CC3)CC[C@]3(C)[C@H](CC[C@@H]4[C@@]5(C)CC=C(C6=CCC(Cl)(C(=O)O)CC6)C(C)(C)[C@@H]5CC[C@]43C)[C@@H]12` (mixture of isomers) [Example A8, 1-chloro-4-((1R,3aS,5aR,5bR,7aR,11aS,11bR,13aR,13bR)-5a,5b,8,8,11a-pentamethyl-3a-((2-(4-(methylsulfonyl)piperidin-1-yl)ethyl)amino)-1-(prop-1-en-2-yl)-2,3,3a,4,5,5a,5b,6,7,7a,8,11,11a,11b,12,13,13a,13b-octadecahydro-1H-cyclopenta[a]chrysen-9-yl)cyclohex-3-enecarboxylic acid], the EC50 is 2.42 nM.
On the same count and under the same terms, next, `C=C(C)[C@@H]1CC[C@]2(NCCN3CCC(S(C)(=O)=O)CC3)CC[C@]3(C)[C@H](CC[C@@H]4[C@@]5(C)CC=C(C6=CCC(CCO)(C(=O)O)CC6)C(C)(C)[C@@H]5CC[C@]43C)[C@@H]12` (mixture of isomers) [Example A11]: 2.65 nM; `C=C(C)[C@@H]1CC[C@]2(NCCN3CCC(S(C)(=O)=O)CC3)CC[C@]3(C)[C@H](CC[C@@H]4[C@@]5(C)CC=C(C6=CCC(CO)(C(=O)O)CC6)C(C)(C)[C@@H]5CC[C@]43C)[C@@H]12` (mixture of isomers) [Example A13, 1-(hydroxymethyl)-4-((1R,3aS,5aR,5bR,7aR,11aS,11bR,13aR,13bR)-5a,5b,8,8,11a-pentamethyl-3a-((2-(4-(methylsulfonyl)piperidin-1-yl)ethyl)amino)-1-(prop-1-en-2-yl)-2,3,3a,4,5,5a,5b,6,7,7a,8,11,11a,11b,12,13,13a,13b-octadecahydro-1H-cyclopenta[a]chrysen-9-yl)cyclohex-3-enecarboxylic acid]: 0.301 nM; `C=C(C)[C@@H]1CC[C@]2(NCCN3CCS(=O)(=O)CC3)CC[C@]3(C)[C@H](CC[C@@H]4[C@@]5(C)CC=C(C6=CC(CC(=O)O)CC6)C(C)(C)[C@@H]5CC[C@]43C)[C@@H]12` (mixture of isomers) [Example A15]: 0.547 nM.
As to `C=C(C)[C@@H]1CC[C@]2(NCCN3CCS(=O)(=O)CC3)CC[C@]3(C)[C@H](CC[C@@H]4[C@@]5(C)CC=C(C6=CC7C(C6)C7C(=O)O)C(C)(C)[C@@H]5CC[C@]43C)[C@@H]12` (mixture of isomers) [Example A18, 3-((1R,3aS,5aR,5bR,7aR,11aS,11bR,13aR,13bR)-3a-((2-(1,1-dioxidothiomorpholino)ethyl)amino)-5a,5b,8,8,11a-pentamethyl-1-(prop-1-en-2-yl)-2,3,3a,4,5,5a,5b,6,7,7a,8,11,11a,11b,12,13,13a,13b-octadecahydro-1H-cyclopenta[a]chrysen-9-yl)bicyclo[3.1.0]hex-2-ene-6-carboxylic acid], the EC50 came to 2.26 nM.
The same measure, in the same setting: the same measure for `C=C(C)[C@@H]1CC[C@]2(NCCN3CCC(S(C)(=O)=O)CC3)CC[C@]3(C)[C@H](CC[C@@H]4[C@@]5(C)CC=C(C6=CCC(NC(C)=O)(C(=O)O)CC6)C(C)(C)[C@@H]5CC[C@]43C)[C@@H]12` (mixture of isomers) [Example A32, 1-acetamido-4-((1R,3aS,5aR,5bR,7aR,11aS,11bR,13aR,13bR)-5a,5b,8,8,11a-pentamethyl-3a-((2-(4-(methylsulfonyl)piperidin-1-yl)ethyl)amino)-1-(prop-1-en-2-yl)-2,3,3a,4,5,5a,5b,6,7,7a,8,11,11a,11b,12,13,13a,13b-octadecahydro-1H-cyclopenta[a]chrysen-9-yl)cyclohex-3-enecarboxylic acid]: 1.5 nM.
Turning to `C=C(C)[C@@H]1CC[C@]2(NCCN3CCC(S(C)(=O)=O)CC3)CC[C@]3(C)[C@H](CC[C@@H]4[C@@]5(C)CC=C(C6=CCC(CC(=O)O)CC6)C(C)(C)[C@@H]5CC[C@]43C)[C@@H]12` (mixture of isomers) [Example A33, 2-(4-((1R,3aS,5aR,5bR,7aR,11aS,11bR,13aR,13bR)-5a,5b,8,8,11a-pentamethyl-3a-((2-(4-(methylsulfonyl)piperidin-1-yl)ethyl)amino)-1-(prop-1-en-2-yl)-2,3,3a,4,5,5a,5b,6,7,7a,8,11,11a,11b,12,13,13a,13b-octadecahydro-1H-cyclopenta[a]chrysen-9-yl)cyclohex-3-en-1-yl)acetic acid], the EC50 came to 570 nM.
As to `C=C(C)[C@@H]1CC[C@]2(NCCN3CCS(=O)(=O)CC3)CC[C@]3(C)[C@H](CC[C@@H]4[C@@]5(C)CC=C(C6=CC(C(=O)O)C(C(=O)O)C6)C(C)(C)[C@@H]5CC[C@]43C)[C@@H]12` (single isomer, unassigned) [Example A19], the concentration giving a half-maximal response (EC50) came to 100 nM.
On the same count and under the same terms, the same measure for `C=C(C)[C@@H]1CC[C@]2(NCCN3CCS(=O)(=O)CC3)CC[C@]3(C)[C@H](CC[C@@H]4[C@@]5(C)CC=C(C6=CC(C(F)(F)C(=O)O)CC6)C(C)(C)[C@@H]5CC[C@]43C)[C@@H]12` (single isomer, unassigned) [Example A23]: 5.63 nM; for `C=C(C)[C@@H]1CC[C@]2(NCCN3CCS(=O)(=O)CC3)CC[C@]3(C)[C@H](CC[C@@H]4[C@@]5(C)CC=C(C6=CCC(C(F)(F)C(=O)O)C6)C(C)(C)[C@@H]5CC[C@]43C)[C@@H]12` (single isomer, unassigned) [Example A24]: 4.65 nM; for `C=C(C)[C@@H]1CC[C@]2(NCCN3CCS(=O)(=O)CC3)CC[C@]3(C)[C@H](CC[C@@H]4[C@@]5(C)CC=C(C6=CC7C(C6)C7C(=O)O)C(C)(C)[C@@H]5CC[C@]43C)[C@@H]12` (single isomer, unassigned) [Example A26]: 0.941 nM.
Still for that read-out and setting: next, `C=C(C)[C@@H]1CC[C@]2(NCCN3CCC(S(C)(=O)=O)CC3)CC[C@]3(C)[C@H](CC[C@@H]4[C@@]5(C)CC=C(C6=CC7C(C6)C7C(=O)O)C(C)(C)[C@@H]5CC[C@]43C)[C@@H]12` (single isomer, unassigned) [Example A27]: 0.921 nM; `C=C(C)[C@@H]1CC[C@]2(NCCN3CCS(=O)(=O)CC3)CC[C@]3(C)[C@H](CC[C@@H]4[C@@]5(C)CC=C(C6=CCC(C(=O)O)CC6)C(C)(C)[C@@H]5CC[C@]43C)[C@@H]12` (stereo in doubt) [Example 9, (R)-4-((1R,3aS,5aR,5bR,7aR,11aS,11bR,13aR,13bR)-3a-((2-(1,1-dioxidothiomorpholino)ethyl)amino)-5a,5b,8,8,11a-pentamethyl-1-(prop-1-en-2-yl)-2,3,3a,4,5,5a,5b,6,7,7a,8,11,11a,11b,12,13,13a,13b-octadecahydro-1H-cyclopenta[a]chrysen-9-yl)cyclohex-3-enecarboxylic acid, TFA]: 0.892 nM.
In the case of `C=C(C)[C@@H]1CC[C@]2(NCCN3CCS(=O)(=O)CC3)CC[C@]3(C)[C@H](CC[C@@H]4[C@@]5(C)CC=C(C6=CCC(C(=O)O)CC6)C(C)(C)[C@@H]5CC[C@]43C)[C@@H]12` (stereo in doubt) [Example 10, (S)-4-((1R,3aS,5aR,5bR,7aR,11aS,11bR,13aR,13bR)-3a-((2-(1,1-dioxidothiomorpholino)ethyl)amino)-5a,5b,8,8,11a-pentamethyl-1-(prop-1-en-2-yl)-2,3,3a,4,5,5a,5b,6,7,7a,8,11,11a,11b,12,13,13a,13b-octadecahydro-1H-cyclopenta[a]chrysen-9-yl)cyclohex-3-enecarboxylic acid, TFA], the 50% effective concentration (EC50) was determined as 1.26 nM.
